One assay deals with HT29 cytosolic GST (Homo sapiens, UniProt P09211). Nature of the assay: Spectrophotometric GST activity analysis. The assay is classed as biochemical. Particulars: inhibition of GST activity in HT29 cells. The method, then: GST catalyzes the conjugation of CDNB with glutathione and results in a CDNB-glutathione product with a strong molar absorption at 340 nm. The change of absorption is monitored for 5 min.
1 x 10^6 cells are collected and washed once with ice-cold phosphate-buffered saline at 1000 rpm for 10 min at 4°C. Cell pellets are resuspended in 200 µl ice-cold phosphate-buffered saline, and are sonicated for 2 min on ice. The sonicate is then centrifuged at 11750 g, 4°C for 15 min in an Eppendorf Centrifuge, and the supernatant is assayed for GST activity.

The next assay concerns MCF-7ADR. Nature of the assay: Radiosensitizing activity of MDM2 antagonistic compounds, MCF-7ADR cells. The assay is classed as cell-based, human. The settings on record: MCF-7 ADR cells (mutant p53, high GST content). The method, then:
Biologic assay for radiosensitizing activity of MDM2 antagonistic compounds: Human tumor cell lines containing wild-type p53 and low levels of GST, such as MCF7 (breast carcinoma) or mutant p53 and a high GST content, such as MCF7 ADR (adriamycin-resistant breast carcinoma) are cultivated in RPMI medium, supplemented with 10% fetal calf serum to a semi-confluent state.
In order to determine the radiosensitizing activity of selected compounds on these cells a minimal toxic dose was determined as 2Gy with a ^137Cesium source at room temperature. Following irradiation of monolayer cells in exponential growth phase with 2 Gy, cells were incubated with various concentrations of the selected compounds for 2-6 h. Cells were trypsinized and seeded in appropriate dilutions into 6 well plates. Surviving cells were trypsinized after 12-13 days and cell number was determined by staining with trypane blue for living/dead cells. The protocol was established according to Khil et al., 1996, Int. J. Rad. Oncol. Biol. Phys. 34, 375-380.

The results in this text go back to patent EP0947511A1, “Derivatives of phenoxy acetic acid and of phenoxymethyl tetrazole having antitumor activity” (F. HOFFMANN-LA ROCHE AG, priority 1998, dated 1999).

Each structure is given as a SMILES string.

Chain of HT29 cytosolic GST (P09211 2-210): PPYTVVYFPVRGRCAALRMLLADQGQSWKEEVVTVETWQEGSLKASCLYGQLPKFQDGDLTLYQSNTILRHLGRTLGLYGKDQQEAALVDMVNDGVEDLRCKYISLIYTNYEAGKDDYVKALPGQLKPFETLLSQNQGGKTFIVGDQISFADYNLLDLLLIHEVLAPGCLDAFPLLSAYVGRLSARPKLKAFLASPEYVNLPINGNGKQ

Consider `O=C(O)COc1ccc(C(=O)/C=C/c2ccc(Cl)c(Cl)c2)cc1` [LSM 83177, 3,4-dichloro-4'-(carboxymethoxy)chalcone], for which, on HT29 cytosolic GST, the IC-50 was 7,7 µg/ml. Further, the radiosensitization entry with MCF-7ADR is “leads to a radiosensitization in MCF-7 ADR cells”.
In the case of `C=C(CC)C(=O)c1ccc(OCC(=O)O)c(Cl)c1Cl` [ethacrynic acid, reference compound], the radiosensitization result with MCF-7ADR is given as “does not mediate any radiosensitization”.
